Reference: patent publication US20190269129A1, “COMPOSITION CONTAINING 1,2-DIBROMO-2,4-DICYANOBUTANE (DBDCB) AND ZINC PYRITHIONE (ZPT)” (LANXESS Deutschland GmbH, priority 2014, published 2019)

Assays:
Assay type in all cases: cell-based
Conditions in all cases: 0.05 wt % biocide added
[1] = test system: Yeasts: Candida albicans and Rhodotorula rubra; assay: Microbiological stress test, preservation of a polymer emulsion: yeasts
From the text: (§1) The preserving effect of an inventive composition comprising DBDCB and ZPT in a polymer emulsion (acrylate-based, pH=6.5) was investigated using a microbiological stress test. The microbiological stress test examines the susceptibility of water-based systems to microbial attack and the effect of preservatives. To this end, the preservatives are incorporated in defined concentrations into the water-based systems. […] Having knowledge of the microorganism populations prevalent in polymer emulsions and dispersions the experiment employed a mixture of the following microorganism types for testing: Yeasts: Candida albicans and Rhodotorula rubra.

[2] = test system: Bacteria: Escherichia coli, Pseudomonas aeruginosa and Staphylococcus aureus; assay: Microbiological stress test, preservation of a polymer emulsion: bacteria
From the text: as §1, with “Bacteria: Escherichia coli, Pseudomonas aeruginosa” for “Yeasts: Candida albicans”, “Staphylococcus aureus.” for “Rhodotorula rubra.”

[3] = test system: Molds: Acremonium strictum, Aspergillus niger and Geotrichum candidu; assay: Microbiological stress test, preservation of a polymer emulsion: molds
From the text: as §1, with “Molds: Acremonium strictum, Aspergillus niger” for “Yeasts: Candida albicans”, “Geotrichum candidu.” for “Rhodotorula rubra.”

[4] = week 1, polymer emulsion pH 6.5
[5] = week 2, polymer emulsion pH 6.5
[6] = week 3, polymer emulsion pH 6.5
[7] = week 4, polymer emulsion pH 6.5
[8] = week 5, polymer emulsion pH 6.5
[9] = week 6, polymer emulsion pH 6.5

[O-][n+]1ccccc1[S-].[O-][n+]1ccccc1[S-].[Zn+2] [ZPT, zinc bis[2-pyridinethiolate]-N,N-dioxide]
Activity of the biocides determined 1 week after germ addition, week 1 [1, 4]: 2 (markedly reduced microbe level is observed (10^3−10^1 bacteria/10^2−10^1 mold/yeast cells per g) (score of 2=good)) | Activity of the biocides determined 1 week after germ addition, week 2 [1, 5]: 2 (markedly reduced microbe level is observed (10^3−10^1 bacteria/10^2−10^1 mold/yeast cells per g) (score of 2=good)) | Activity of the biocides determined 1 week after germ addition, week 3 [1, 6]: 2 (markedly reduced microbe level is observed (10^3−10^1 bacteria/10^2−10^1 mold/yeast cells per g) (score of 2=good)) | Activity of the biocides determined 1 week after germ addition, week 4 [1, 7]: 2 (markedly reduced microbe level is observed (10^3−10^1 bacteria/10^2−10^1 mold/yeast cells per g) (score of 2=good)) | Activity of the biocides determined 1 week after germ addition, week 5 [1, 8]: 2 (markedly reduced microbe level is observed (10^3−10^1 bacteria/10^2−10^1 mold/yeast cells per g) (score of 2=good)) | Activity of the biocides determined 1 week after germ addition, week 6 [1, 9]: 2 (markedly reduced microbe level is observed (10^3−10^1 bacteria/10^2−10^1 mold/yeast cells per g) (score of 2=good)) | Activity of the biocides determined 1 week after germ addition, week 1 [2, 4]: 0 (no reduction or only a minor reduction of the microbe level is observed (residual level of at least 10^5 bacteria/10^4 mold/yeast cells per g) (score of 0=poor)) | Activity of the biocides determined 1 week after germ addition, week 2 [2, 5]: 0 (no reduction or only a minor reduction of the microbe level is observed (residual level of at least 10^5 bacteria/10^4 mold/yeast cells per g) (score of 0=poor)) | Activity of the biocides determined 1 week after germ addition, week 3 [2, 6]: 0 (no reduction or only a minor reduction of the microbe level is observed (residual level of at least 10^5 bacteria/10^4 mold/yeast cells per g) (score of 0=poor)) | Activity of the biocides determined 1 week after germ addition, week 4 [2, 7]: 0 (no reduction or only a minor reduction of the microbe level is observed (residual level of at least 10^5 bacteria/10^4 mold/yeast cells per g) (score of 0=poor)) | Activity of the biocides determined 1 week after germ addition, week 5 [2, 8]: 0 (no reduction or only a minor reduction of the microbe level is observed (residual level of at least 10^5 bacteria/10^4 mold/yeast cells per g) (score of 0=poor)) | Activity of the biocides determined 1 week after germ addition, week 6 [2, 9]: 0 (no reduction or only a minor reduction of the microbe level is observed (residual level of at least 10^5 bacteria/10^4 mold/yeast cells per g) (score of 0=poor)) | Activity of the biocides determined 1 week after germ addition, week 1 [3, 4]: 2 (markedly reduced microbe level is observed (10^3−10^1 bacteria/10^2−10^1 mold/yeast cells per g) (score of 2=good)) | Activity of the biocides determined 1 week after germ addition, week 2 [3, 5]: 2 (markedly reduced microbe level is observed (10^3−10^1 bacteria/10^2−10^1 mold/yeast cells per g) (score of 2=good)) | Activity of the biocides determined 1 week after germ addition, week 3 [3, 6]: 2 (markedly reduced microbe level is observed (10^3−10^1 bacteria/10^2−10^1 mold/yeast cells per g) (score of 2=good)) | Activity of the biocides determined 1 week after germ addition, week 4 [3, 7]: 2 (markedly reduced microbe level is observed (10^3−10^1 bacteria/10^2−10^1 mold/yeast cells per g) (score of 2=good)) | Activity of the biocides determined 1 week after germ addition, week 5 [3, 8]: 2 (markedly reduced microbe level is observed (10^3−10^1 bacteria/10^2−10^1 mold/yeast cells per g) (score of 2=good)) | Activity of the biocides determined 1 week after germ addition, week 6 [3, 9]: 2 (markedly reduced microbe level is observed (10^3−10^1 bacteria/10^2−10^1 mold/yeast cells per g) (score of 2=good))
